Measurements reported in US20240066018A1 (priority 2022, published 2024).

How the values were obtained:
[1] = system: primary colon cancer samples from patients with high M3 receptor expression grown as organoids
[2] = patients with irritable bowel syndrome; cited from earlier work

Structure (SMILES): c1ccc(C(O[C@@H]2CCCN(CCc3ccc4c(c3)OCO4)C2)c2ccccc2)cc1 [zamifenacin]
- Organoid growth [1]: inhibited
- Colonic motor activity [2]: reduce colonic motor activity
